Patent publication US10508088B2, “Methods using HDAC11 inhibitors” (FORMA Therapeutics, Inc., priority 2016, dated 2019)

Molecular target: Full length human recombinant HDAC11 (Homo sapiens (Human), UniProt Q96DB2)
Assay: Enzymatic HDAC11 assay, electrophoretic mobility shift
Format: biochemical
Details: substrate FAM-RHKK(tri-fluor-Ac)-NH2, read-out: HDAC11 IC50 Range
Protocol: The enzymatic HDAC11 assay was performed using electrophoretic mobility shift assay. Full length human recombinant HDAC11 protein was expressed in baculoviral system and purified by affinity chromatography. The enzymatic reactions were assembled in 384 well plates in a total volume of 25 μL in a reaction buffer composing: 100 mM HEPES, pH 7.5, 25 mM KCl, 0.1% bovine serum albumin, 0.01% Triton X-100, 1% DMSO (from compounds) 2 μM of the fluorescently labeled peptide substrate and enzyme. The enzyme was added at a final concentration of 10 nM. The peptide substrate FAM-RHKK(tri-fluor-Ac)-NH2 was used. The compounds were tested at 12 concentrations spaced by 3× dilution intervals. Negative control samples (0%-inhibition in the absence of inhibitor) and positive control samples (100%-inhibition) were assembled in replicates of four in each assay plate. The reactions were incubated at 25° C. and quenched by the addition of 45 μL of termination buffer (100 mM HEPES, pH 7.5, 0.01% Triton X-100, 0.05% SDS).
The terminated assay plates were analyzed on LabChip® 3000 microfluidic electrophoresis instrument (Perkin Elmer/Caliper Life Sciences). The fluorescence intensity of the electrophoretically separated de-acetylated product and substrate peptide was measured. Activity in each sample was determined as the product to sum ratio (PSR):P/(S+P), where P is the peak height of the product peptide and S is the peak height of the substrate peptide. Percent inhibition (Pinh) is determined using the following equation: Pinh=(PSR0%−PSRinh)/(PSR0%−PSR100%)*100,
where PSRinh is the product sum ratio in the presence of inhibitor, PSR0% is the average product sum ration in the absence of inhibitor and PSR100% is the average product sum ratio in 100%-inhibition control samples. The IC50 values of inhibitors were determined by fitting the percent inhibition curves with 4 parameter dose-response model using XLfit 4 software.

Chain of Full length human recombinant HDAC11 (Q96DB2 whole entry): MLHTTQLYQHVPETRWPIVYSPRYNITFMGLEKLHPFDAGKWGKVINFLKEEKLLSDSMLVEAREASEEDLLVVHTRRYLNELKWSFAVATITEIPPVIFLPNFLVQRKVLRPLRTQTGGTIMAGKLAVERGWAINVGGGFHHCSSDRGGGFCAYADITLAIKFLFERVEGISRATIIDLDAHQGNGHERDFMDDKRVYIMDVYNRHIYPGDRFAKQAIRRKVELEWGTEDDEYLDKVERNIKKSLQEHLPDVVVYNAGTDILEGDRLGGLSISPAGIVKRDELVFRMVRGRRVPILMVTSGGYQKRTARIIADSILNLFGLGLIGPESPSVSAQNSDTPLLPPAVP

| SMILES | IC50 [nM] |
| --- | --- |
| COc1ccc(CN2CCC3(Cc4cccc(C(=O)NO)c4C3)C2=O)cc1 (stereo not shown) [II-19, N-hydroxy-1′-(4-methoxybenzyl)-2′-oxo-1,3-dihydrospiro[indene-2,3′-pyrrolidine]-4-carboxamide] | > 1000 |
| CS(=O)(=O)c1ccc(CN2CCC3(Cc4cccc(C(=O)NO)c4C3)C2=O)cc1 (stereo not shown) [II-8, N-hydroxy-1′-(4-(methylsulfonyl)benzyl)-2′-oxo-1,3-dihydrospiro[indene-2,3′-pyrrolidine]-4-carboxamide] | > 1000 |
| O=C(NO)c1cccc2c1CC1(CCN(Cc3ccc(F)cc3)C1=O)C2 (stereo not shown) [II-7, 1′-(4-fluorobenzyl)-N-hydroxy-2′-oxo-1,3-dihydrospiro[indene-2,3′-pyrrolidine]-4-carboxamide] | 500 to 1000 |
| O=C(NO)c1cccc2c1CC1(CCN(Cc3cccc(Cl)c3)C1=O)C2 (stereo not shown) [II-30, 1′-(3-chlorobenzyl)-N-hydroxy-2′-oxo-1,3-dihydrospiro[indene-2,3′-pyrrolidine]-4-carboxamide] | < 500 |
| O=C(NO)c1cccc2c1CC1(CCN(Cc3cccc(Cl)c3Cl)C1=O)C2 (stereo not shown) [II-22, 1′-(2,3-dichlorobenzyl)-N-hydroxy-2′-oxo-1,3-dihydrospiro[indene-2,3′-pyrrolidine]-4-carboxamide] | < 500 |
| O=C(NO)c1cccc2c1CC1(CCN(C3CC3)C1=O)C2 (stereo not shown) [II-9, 1′-cyclopropyl-N-hydroxy-2′-oxo-1,3-dihydrospiro[indene-2,3′-pyrrolidine]-4-carboxamide] | > 1000 |
| O=C(NO)c1cccc2c1CC1(CCN(Cc3ccc(F)cc3F)C1=O)C2 (stereo not shown) [II-35, 1′-(2,4-difluorobenzyl)-N-hydroxy-2′-oxo-1,3-dihydrospiro[indene-2,3′-pyrrolidine]-4-carboxamide] | > 1000 |
| O=C(NO)c1cccc2c1CC1(CCN(Cc3csc(-c4ccccc4)n3)C1=O)C2 (stereo not shown) [II-34, N-hydroxy-2′-oxo-1′-((2-phenylthiazol-4-yl)methyl)-1,3-dihydrospiro[indene-2,3′-pyrrolidine]-4-carboxamide] | > 1000 |
| O=C(NO)c1cccc2c1CC1(CCN(Cc3cccc(C(F)(F)F)c3)C1=O)C2 (stereo not shown) [II-31, N-hydroxy-2′-oxo-1′-(3-(trifluoromethyl)benzyl)-1,3-dihydrospiro[indene-2,3′-pyrrolidine]-4-carboxamide] | < 500 |
| O=C(NO)c1cccc2c1CC1(CCN(Cc3ccc(Cl)c(Cl)c3)C1=O)C2 (stereo not shown) [II-38, 1′-(3,4-dichlorobenzyl)-N-hydroxy-2′-oxo-1,3-dihydrospiro[indene-2,3′-pyrrolidine]-4-carboxamide] | < 500 |
| O=C(NO)c1cccc2c1CC1(CCN(Cc3cccc(-c4ccccc4)c3)C1=O)C2 (stereo not shown) [II-18, 1′-([1,1′-biphenyl]-3-ylmethyl)-N-hydroxy-2′-oxo-1,3-dihydrospiro[indene-2,3′-pyrrolidine]-4-carboxamide] | < 500 |
| O=C(NO)c1cccc2c1CC1(CCN(Cc3ccc(OC(F)(F)F)cc3)C1=O)C2 (stereo not shown) [II-27, N-hydroxy-2′-oxo-1′-(4-(trifluoromethoxy)benzyl)-1,3-dihydrospiro[indene-2,3′-pyrrolidine]-4-carboxamide] | < 500 |
| O=C(NO)c1cccc2c1CC1(CCN(Cc3ccccc3-c3ccccc3)C1=O)C2 (stereo not shown) [II-37, 1′-([1,1′-biphenyl]-2-ylmethyl)-N-hydroxy-2′-oxo-1,3-dihydrospiro[indene-2,3′-pyrrolidine]-4-carboxamide] | < 500 |
| O=C(NO)c1cccc2c1CC1(CCN(c3ccccc3C(F)(F)F)C1=O)C2 (stereo not shown) [II-13, N-hydroxy-2′-oxo-1′-(2-(trifluoromethyl)phenyl)-1,3-dihydrospiro[indene-2,3′-pyrrolidine]-4-carboxamide] | > 1000 |
| O=C(NO)c1cccc2c1C[C@@]1(CCN(Cc3ccc(Cl)c(C(F)(F)F)c3)C1=O)C2 [II-3, (R)-1′-(4-chloro-3-(trifluoromethyl)benzyl)-N-hydroxy-2′-oxo-1,3-dihydrospiro[indene-2,3′-pyrrolidine]-4-carboxamide] | < 500 |
| Cc1ccc(CN2CCC3(Cc4cccc(C(=O)NO)c4C3)C2=O)cc1C (stereo not shown) [II-39, 1′-(3,4-dimethylbenzyl)-N-hydroxy-2′-oxo-1,3-dihydrospiro[indene-2,3′-pyrrolidine]-4-carboxamide] | 500 to 1000 |

Results, then the compound that gave them:

| IC50 [nM] | SMILES |
| --- | --- |
| > 1000 | O=C(NO)c1cccc2c1OC1(CC2)CCN(C2CCCCC2)CC1 [II-81, 1′-cyclohexyl-N-hydroxyspiro[chromane-2,4′-piperidine]-8-carboxamide] |
| > 1000 | O=C(NO)c1cccc2c1CC1(CCN(Cc3ccc(Cl)cc3)CC1)C2 [II-62, 1′-(4-chlorobenzyl)-N-hydroxy-1,3-dihydrospiro[indene-2,4′-piperidine]-4-carboxamide] |
| > 1000 | O=C(NO)c1cccc2c1CC1(CCN(Cc3cccc(C(F)(F)F)n3)C1=O)C2 (stereo not shown) [II-51, N-hydroxy-2′-oxo-1′-((6-(trifluoromethyl)pyridin-2-yl)methyl)-1,3-dihydrospiro[indene-2,3′-pyrrolidine]-4-carboxamide] |
| > 1000 | O=C(NO)c1cccc2c1OC1(CC2)CCN(S(=O)(=O)C2CCCCC2)CC1 [II-76, 1′-(cyclohexylsulfonyl)-N-hydroxyspiro[chromane-2,4′-piperidine]-8-carboxamide] |
| 500 to 1000 | O=C(NO)c1cccc2c1CC1(CCN(Cc3ccc(C(F)(F)F)cc3)C1)C2 (stereo not shown) [II-56, N-hydroxy-1′-(4-(trifluoromethyl)benzyl)-1,3-dihydrospiro[indene-2,3′-pyrrolidine]-4-carboxamide] |
| < 500 | O=C(NO)c1cccc2c1CCC1(CCN(Cc3ccc(C(F)(F)F)cc3)C1=O)C2 (stereo not shown) [II-85, N-hydroxy-2′-oxo-1′-(4-(trifluoromethyl)benzyl)-3,4-dihydro-1H-spiro[naphthalene-2,3′-pyrrolidine]-5-carboxamide] |
| > 1000 | O=C(NO)c1cccc2c1CC1(CC2)CCN(c2ccccc2C(F)(F)F)C1=O (stereo not shown) [II-73, N-hydroxy-2′-oxo-1′-(2-(trifluoromethyl)phenyl)-3,4-dihydro-1H-spiro[naphthalene-2,3′-pyrrolidine]-8-carboxamide] |
| 500 to 1000 | O=C(NO)c1cccc2c1CC1(CC2)CCN(Cc2ccc(C(F)(F)F)cc2)C1=O (stereo not shown) [II-70, N-hydroxy-2′-oxo-1′-(4-(trifluoromethyl)benzyl)-3,4-dihydro-1H-spiro[naphthalene-2,3′-pyrrolidine]-8-carboxamide] |
| 500 to 1000 | O=C(NO)c1cccc2c1CCC1(CCN(c3cccc(C(F)(F)F)c3)C1=O)C2 (stereo not shown) [II-89, N-hydroxy-2′-oxo-1′-(3-(trifluoromethyl)phenyl)-3,4-dihydro-1H-spiro[naphthalene-2,3′-pyrrolidine]-5-carboxamide] |
| < 500 | O=C(NO)c1cccc2c1CC1(CC2)CCN(Cc2ccc(C(F)(F)F)c(F)c2)C1=O (stereo not shown) [II-68, 1′-(3-fluoro-4-(trifluoromethyl)benzyl)-N-hydroxy-2′-oxo-3,4-dihydro-1H-spiro[naphthalene-2,3′-pyrrolidine]-8-carboxamide] |
| > 1000 | O=C(NO)c1cccc2c1CCC1(CCN(c3ccccc3)CC1)O2 [II-92, N-hydroxy-1′-phenylspiro[chromane-2,4′-piperidine]-5-carboxamide] |
| 500 to 1000 | O=C(NO)c1cccc2c1CC1(CC2)CCN(c2ccc(C(F)(F)F)cc2)C1=O (stereo not shown) [II-71, N-hydroxy-2′-oxo-1′-(4-(trifluoromethyl)phenyl)-3,4-dihydro-1H-spiro[naphthalene-2,3′-pyrrolidine]-8-carboxamide] |
| < 500 | O=C(NO)c1cccc2c1CCC1(CCN(Cc3ccc(Cl)c(C(F)(F)F)c3)C1=O)C2 (stereo not shown) [II-84, 1′-(4-chloro-3-(trifluoromethyl)benzyl)-N-hydroxy-2′-oxo-3,4-dihydro-1H-spiro[naphthalene-2,3′-pyrrolidine]-5-carboxamide] |
| > 1000 | O=C(NO)c1cccc2c1CC1(CC2)CCN(Cc2ccc(Cl)cc2)C1=O (stereo not shown) [II-69, 1′-(4-chlorobenzyl)-N-hydroxy-2′-oxo-3,4-dihydro-1H-spiro[naphthalene-2,3′-pyrrolidine]-8-carboxamide] |
| < 500 | O=C(NO)c1cccc2c1CC1(CCN(Cc3cccc(C(F)(F)F)c3F)C1=O)C2 (stereo not shown) [II-43, 1′-(2-fluoro-3-(trifluoromethyl)benzyl)-N-hydroxy-2′-oxo-1,3-dihydrospiro[indene-2,3′-pyrrolidine]-4-carboxamide] |
